Test results from publication PMC10397204, “Revealing protonation states and tracking substrate in serine hydroxymethyltransferase with room-temperature X-ray and neutron crystallography” (Communications Chemistry, 2023).

Tests used:
TthSHMT [1] = target: T1, TthSHMT (Thermus thermophilus, UniProt Q5SI56); assay: joint room-temperature X-ray/neutron crystallography, crystal soak; assay type: binding; details: pH 5.5, 500 mM; D2O H/D exchange; labelled compound; noncovalent pre-Michaelis complex in peripheral site, protomer A, sulfate in substrate site
T1 construct: gene glyA; recombinant in E. coli BL21(DE3), codon-optimized glyA, N-terminal His6-tag with linker removed by TEV, starts at Ser3; homodimer, active site formed by residues of both protomers
T1 sequence (Q5SI56 3-407): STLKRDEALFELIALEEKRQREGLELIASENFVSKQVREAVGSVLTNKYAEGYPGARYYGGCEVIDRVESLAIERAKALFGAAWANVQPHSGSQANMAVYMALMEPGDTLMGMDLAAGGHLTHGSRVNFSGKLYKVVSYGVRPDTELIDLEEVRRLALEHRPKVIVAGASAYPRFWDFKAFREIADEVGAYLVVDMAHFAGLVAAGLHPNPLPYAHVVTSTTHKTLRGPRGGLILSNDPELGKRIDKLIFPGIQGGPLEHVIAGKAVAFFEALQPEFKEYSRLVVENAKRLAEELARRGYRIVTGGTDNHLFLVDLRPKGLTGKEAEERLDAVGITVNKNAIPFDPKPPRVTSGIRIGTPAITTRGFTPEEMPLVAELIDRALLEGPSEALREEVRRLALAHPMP

TthSHMT [2] = target: T1, TthSHMT; assay: joint room-temperature X-ray/neutron crystallography; assay type: binding; details: pH 5.5; covalent; Schiff base with Lys226 (internal aldimine)

SMILES | joint room-temperature X-ray/neutron crystallography, crystal soak (TthSHMT [1]) | joint room-temperature X-ray/neutron crystallography (TthSHMT [2])
N[C@@H](CO)C(=O)O [L-Ser-d7] | we observed L-Ser-d7 bound in a pocket on the periphery of the active site | –
Cc1ncc(COP(=O)(O)O)c(C=O)c1O [PLP] | – | In TthSHMT, PLP is covalently bound to Lys226 (Lys280 in hSHMT2) through a Schiff base
